Laboratory results as given in US7531646B2, “β-D-ribosidase activity indicators with a chromogenic substrate” (priority 2001, dated 2009).
Like-named read-outs stand apart in the source and are kept apart here.

Key:
K. pneumoniae [1] = assay: Evaluation of galactoside substrates with metal salts forming chelates; conditions: IPTG 30 mg/l; for Colour of colonies: K. pneumoniae
E. coli [2] = assay: Evaluation of methoxyflavone riboside with metal salts; type: cell-based
From the text: (§1) This was achieved using a densitometer.
(§2) The substrate shown in the heading was synthesised from the same flavone starting material as Example 11 by a method analogous to that of Example 2. […] The species tested was E. coli. […] When the aluminium salt-containing medium was used with a mixed culture of E. coli and Yersinia entermcolitica, the E. coli colonies were bright yellow and stood out very clearly.

Y. enterocolitica = assay: as above; type: cell-based; conditions: aluminium salt-containing medium; mixed culture with E. coli
From the text: as §1, §2

Staphylococcus aureus = assay: Evaluation of phosphate substrate on agar (Table 3); type: cell-based; conditions: Staphylococcus aureus NCTC 6571
Clostridium perfringens = type: cell-based; conditions: Clostridium perfringens NCTC 8181; incubated anaerobically
Escherichia coli = assay: Evaluation of phosphate substrate on agar (Table 3); type: cell-based; conditions: Escherichia coli NCTC 10418
Acinetobacter lwoffii = assay: as above; type: cell-based; conditions: Acinetobacter lwoffii ATCC 15309
Yersinia enterocolitica = type: cell-based; conditions: Yersinia enterocolitica NCTC 11197
Enterococcus faecalis = assay: Evaluation of phosphate substrate on agar (Table 3); type: cell-based; conditions: Enterococcus faecalis NCTC 775
All species tested = assay: Evaluation of phosphate substrate on agar, all species tested; type: cell-based
L. monocytogenes = assay: Evaluation of benzophenone glucoside on agar (Table 6); conditions: ferric ammonium nitrate at 500 mg/l
S. aureus = assay: as above; type: cell-based; parameters: growth: key to the marks not given beside the values; conditions: ferric ammonium nitrate at 500 mg/l
From the text: as §1
(§3) The background agar was beige.

E. coli [3] = assay: as above; type: cell-based; parameters: growth: key to the marks not given beside the values; conditions: ferric ammonium nitrate at 500 mg/l
From the text: as §1, §3

S. sonnei = assay: as above; type: cell-based; parameters: growth: key to the marks not given beside the values; conditions: ferric ammonium nitrate at 500 mg/l
From the text: as §1, §3

E. faecalis = assay: as above; conditions: ferric ammonium nitrate at 500 mg/l
Gram positive organisms = assay: Evaluation of benzophenone glucoside on agar, screen; type: cell-based
From the text: as §1, §3

K. pneumoniae [4] = assay: Evaluation of benzophenone glucoside on agar (Table 6); parameters: growth: key to the marks not given beside the values; conditions: ferric ammonium nitrate at 500 mg/l
bacterial enzymes = conditions: cited from earlier work

COc1c(-c2ccc(O[C@@H]3O[C@H](CO)[C@H](O)[C@H](O)[C@H]3O)c(O)c2)oc2ccccc2c1=O [3′,4′-dihydroxy-3-methoxyflavone-4′-β-D-galactopyranoside]
Colour of K. pneumoniae colonies (K. pneumoniae [1]; Metal Al, salt 500 mg/l): Yellow
Colour of K. pneumoniae colonies (K. pneumoniae [1]; Metal Ba, salt 500 mg/l): Yellow
Colour of K. pneumoniae colonies (K. pneumoniae [1]; Metal Bi, salt 500 mg/l): Rusty orange
Colour of K. pneumoniae colonies (K. pneumoniae [1]; Metal Co, salt 500 mg/l): No growth
Colour of K. pneumoniae colonies (K. pneumoniae [1]; Metal Fe, salt 500 mg/l): Brown
Colour of K. pneumoniae colonies (K. pneumoniae [1]; Metal Mn, salt 500 mg/l): Pale orange
Colour of K. pneumoniae colonies (K. pneumoniae [1]; Metal Sn, salt 500 mg/l): Yellow
Colour of K. pneumoniae colonies (K. pneumoniae [1]; Metal Sr, salt 500 mg/l): Yellow
Colour of K. pneumoniae colonies (K. pneumoniae [1]; Metal Zn, salt 500 mg/l): No growth
Colour of K. pneumoniae colonies (K. pneumoniae [1]; No metal): Diffuse yellow

COc1c(-c2ccc(O[C@@H]3O[C@H](CO)[C@@H](O)[C@H]3O)c(O)c2)oc2ccccc2c1=O [3′,4′-dihydroxy-3-methoxyflavone-4′-β-D-ribofuranoside]
colour of precipitates (E. coli [2]; E. coli, in the presence of metal salts): coloured almost identically to the corresponding products referred to in Table 4
colour of E. coli colonies (E. coli [2]; aluminium salt-containing medium, mixed culture of E. coli and Yersinia): bright yellow
colour of Y. enterocolitica colonies (Y. enterocolitica): colourless

3′,4′-Dihydroxyflavone-4′-β-galactopyranoside sodium salt
Colour of colonies (K. pneumoniae [1]; Metal Al, salt 500 mg/l): Yellow
Colour of colonies (K. pneumoniae [1]; Metal Ba, salt 500 mg/l): Pale yellow
Colour of colonies (K. pneumoniae [1]; Metal Bi, salt 500 mg/l): Rusty orange
Colour of colonies (K. pneumoniae [1]; Metal Co, salt 500 mg/l): (inhibits; no growth)
Colour of colonies (K. pneumoniae [1]; Metal Cu, salt 500 mg/l): Orange/brown
Colour of colonies (K. pneumoniae [1]; Metal Fe, salt 500 mg/l): Dark brown or black
Colour of colonies (K. pneumoniae [1]; Metal Mn, salt 500 mg/l): Pale orange
Colour of colonies (K. pneumoniae [1]; Metal Sn, salt 500 mg/l): Pale yellow
Colour of colonies (K. pneumoniae [1]; Metal Sr, salt 500 mg/l): Yellow
Colour of colonies (K. pneumoniae [1]; Metal Zn, salt 500 mg/l): (inhibits; no growth)
Colour of colonies (K. pneumoniae [1]; No metal): Diffuse pale yellow

COc1c(-c2ccc(OP(=O)(O)O)c(O)c2)oc2ccccc2c1=O [Example 11]
Interpretation (Staphylococcus aureus): Positive
colony appearance (Staphylococcus aureus): dark green
Interpretation (Clostridium perfringens): Positive
colony appearance (Clostridium perfringens): dark green
Interpretation (Escherichia coli): Positive
colony appearance (Escherichia coli): pale green
Interpretation (Acinetobacter lwoffii): Negative
colony appearance (Acinetobacter lwoffii): colourless
Interpretation (Yersinia enterocolitica): Negative
colony appearance (Yersinia enterocolitica): colourless
Interpretation (Enterococcus faecalis): Positive
colony appearance (Enterococcus faecalis): small dark green/black
growth on this medium (All species tested): grew well

COc1c(C(=O)c2ccccc2)ccc(O[C@@H]2O[C@H](CO)[C@@H](O)[C@H](O)[C@H]2O)c1O [3,4-dihydroxy-2-methoxybenzophenone-4-β-D-glucopyranoside]
colony colour (L. monocytogenes): pale black
colony colour (S. aureus): cream
growth (S. aureus): ++
colony colour (E. coli [3]): cream
growth (E. coli [3]): ++
colony colour (S. sonnei): cream
growth (S. sonnei): ++
colony colour (E. faecalis): cream
effect on growth (Gram positive organisms): growth inhibiting
colony colour (K. pneumoniae [4]): red/brown
growth (K. pneumoniae [4]): ++

O=C1c2ccccc2C(=O)c2c1ccc(O[C@@H]1O[C@H](CO)[C@H](O)[C@H](O)[C@H]1O)c2O [alizarin β-D-galactopyranoside, alizarin β-D- galactopyranoside]
Colour of colonies (bacterial enzymes; in the presence of aluminium salts): bright-red
Colour of colonies (bacterial enzymes; in the presence of iron salts): bright-violet
